5 compounds from ChEMBL document CHEMBL1125723 (J Med Chem, 1991) can be followed below.

Structures are written as SMILES.

Assay [1] concerns L1210. The experiment in a line: Ability to inhibit L1210 murine leukemia tumor cell growth in culture after 48 hr of its exposure. The assay is classed as functional, cell-based. To be noted: Mus musculus, L1210, 48 h.
Assay [2] is described as follows: Ability to inhibit WI-L2 […] leukemia tumor cell growth in culture after 48 hr of its exposure. Format: functional, cell-based. To be noted: Homo sapiens, WIL2, 48 h.
In a further assay the target is T1, Dihydrofolate reductase (Homo sapiens, UniProt P00374).
T1 sequence (P00374 whole entry): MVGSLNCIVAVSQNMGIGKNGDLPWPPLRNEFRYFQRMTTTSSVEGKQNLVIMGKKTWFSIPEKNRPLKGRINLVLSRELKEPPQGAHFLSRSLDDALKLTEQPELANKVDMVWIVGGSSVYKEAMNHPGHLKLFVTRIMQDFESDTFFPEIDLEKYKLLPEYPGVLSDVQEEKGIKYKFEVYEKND

Assay [3] has as its system L1210. Description: Ability to inhibit MTX-resistant L1210/R81 tumor cell growth was determined. To be noted: Mus musculus.

Description for Dihydrofolate reductase: Ability to inhibit purified Dihydrofolate reductase from human leukemic lymphoblasts was determined spectrophotometrically at 340 nM.

Regarding `C=C(CC(NC(=O)c1ccc(N(C)Cc2cnc3nc(N)nc(N)c3n2)cc1)C(=O)O)C(=O)O` (stereo unspecified), the IC50 worked out at 870 nM in the assay with L1210 [1], 48 nM in assay [2] and 44 nM on Dihydrofolate reductase.
`CN(Cc1cnc2nc(N)nc(N)c2n1)c1ccc(C(=O)NC(CC(C#N)C(=O)O)C(=O)O)cc1` (stereo unspecified): the results for the IC50 in the assay on L1210 [1] and against Dihydrofolate reductase were 18 nM and 57 nM, respectively.
As for `C=C(CC(NC(=O)c1ccc(NCc2cnc3nc(N)nc(N)c3n2)cc1)C(=O)O)C(=O)O` (stereo unspecified), the IC50 with L1210 [1] turned out to be 29 nM; in assay [2], 20 nM; against Dihydrofolate reductase, 88 nM.
With `Nc1nc(N)c2nc(CNc3ccc(C(=O)N[C@@H](CCC(=O)O)C(=O)O)cc3)cnc2n1` [AMINOPTERIN], half-maximal inhibition in assay [2] (IC50) required 7.1 nM. In other words, the single-digit nanomolar range.
In the case of `CN(Cc1cnc2nc(N)nc(N)c2n1)c1ccc(C(=O)N[C@@H](CCC(=O)O)C(=O)O)cc1` [METHOTREXATE], the IC50 in assay [2] worked out at 13 nM; in the assay with L1210 [3], 200000 nM.

In general, IC50 refers to the concentration that gives 50% inhibition.
